Measured values from paper PMC5720837, “Identification of a 4-fluorobenzyl L-valinate amide benzoxaborole (AN11736) as a potential development candidate for the treatment of Animal African Trypanosomiasis (AAT)” (Bioorganic & Medicinal Chemistry Letters, 2018).

Tests used:
[1] = test system: Trypanosoma vivax (T. vivax STIB719/ILRAD 560 strain), bloodstream form; assay: Whole cell Alamar Blue assay, T. vivax (48 h ex vivo); assay type: cell-based; details: T. vivax STIB719/ILRAD 560, 48 h ex vivo Alamar Blue assay; for IC50: Trypanosoma vivax
Experimental: (§1) Activity of compounds 1–71 against T. congolense and T. vivax was determined using the whole cell assays as described ^6 and their IC50 values are summarized in Table 1.
(§2) [6] Assay methods for determination of T. c. and T. v. […] Culture media consisted of complete HMI-9 (IMDM) with 20% bovine serum. To ensure log growth phase, trypanosomes were sub-cultured at appropriate dilutions every 2–3 days. Bloodstream form Trypanosoma vivax (T. vivax) cannot be cultured axenically, therefore trypanosomes (T. vivax STIB719/ILRAD 560 strain) were harvested from a highly parasitemia mouse via cardiac puncture and used directly in the ex vivo drug sensitivity assay on the same day. […] Parasite starting concentrations of 2 × 10^5 (T. c.) and 4 × 10^5 (T. v.) were calculated respectively, using a cell analyzer system or haemo-cytometer, followed by quantification at 536 nm excitation and 588 nm emission wavelengths using a […] reader. Test compounds were prepared as 10 mg/mL DMSO stocks for each assay run. Compounds were assayed in at least three separate, independent test runs and an 11-point dilution curve was used to determine the IC50 values. Data points were averaged to generate sigmoidal dose-response curves and IC50 values were determined using Softmax Pro 5.2 software.

[2] = In vitro metabolic stability, bovine S9; assay type: in vitro ADME; details: S9 fraction
Experimental: (§3) Selected compounds were screened in both mouse and bovine in vitro metabolic stability assays (mouse S9 and bovine S9), as summarized in Table 2. These two species were chosen because the primary in vivo assays were conducted in mice, and the target animal of this research program is cattle. […] We evaluated the efficacy of selected compounds in two in vivo mouse models of infection, against T. congolense and T. vivax, respectively. Mice were infected with either 1 × 10^5 T. c. parasites or 1 × 10^4 T. v. parasites, and then treated with a test compound via intraperitoneal administration for 1, 2 or 4 consecutive days. The mice were then monitored for the presence of parasitemia for up to 60 days post treatment.[7] We tested in T. c. model first, then followed up with T. v. for interesting compounds. […] We selected compound 5 (AN11736) to progress to exploratory studies to determine the efficacy and safety in a preliminary formulation against induced infections of T. vivax and T. congolense in cattle.[8]

[3] = In vitro metabolic stability, mouse S9; assay type: in vitro ADME; details: S9 fraction
Experimental: as §3

[4] = test system: T. c. parasites (STIB736/IL1180 strain); assay: In vivo mouse model of T. congolense infection; design: species or system NMRI female mice; details: intraperitoneal, monitored 60 days post treatment
Experimental: as §3
[7] Methods for testing compound efficacy in mouse models: In vivo mouse efficacy studies were performed at the Swiss TPH, using established mouse models of infection for T. c. and T. v. NMRI female mice were independently infected either with 1 × 10^5T. c. parasites/mouse (STIB736/IL1180 strain) or 1 × 10^4T. v. parasites/mouse (STIB719/ILRAD560 strain) using an intraperitoneal route. Parasitemia was allowed to develop over 7 days (T. c.) or 3 days (T. v.), respectively, before treatment was administered. Compounds were administered via intraperitoneal injection in 10% DMSO/water. Four mice were used per treatment group. Mice were monitored for the presence of trypanosomes, via tail blood examination microscopically with twice-per-week parasitemia checks for 60 days post treatment. Parasitemia was graded on a scale of 0–3, with 0 indicating no trypanosomes seen in 20 fields of view, 1 indicating the presence of 1–5 trypanosomes per field, 2 indicating the presence of 6–20 trypanosomes per field and 3 indicating greater than 20 trypanosomes per field. Mice scoring 2 or 3 were immediately euthanized. After 60 days, aparasitemic mice were considered cured. Untreated control mice survive on average for 10 and 6 days post infection for T. c. and T. v., respectively. All in vivo mouse experiments were conducted in accordance with the strict guidelines set out by the Swiss Federal Veterinary Office, under the ethical approval of license number #2813.

[5] = test system: Trypanosoma congolense (T. congolense IL-3000 strain), bloodstream form; assay: Whole cell Alamar Blue assay, T. congolense (72 h in vitro); assay type: cell-based; details: T. congolense IL-3000, 72 h in vitro Alamar Blue assay
Experimental: as §1, §2

| IC50 [1] | IC50 ([5]; Trypanosoma congolense, 72 h) | SMILES | other results |
| --- | --- | --- | --- |
| 0.69 nM | 0.66 nM | Cc1c(C(=O)N[C@H](C(=O)OC2CCC2)C(C)C)ccc2c1B(O)OC2 [Compound 58] |  |
| 4.1 nM | 5.9 nM | Cc1c(C(=O)N[C@H](C(=O)OCC2CCN(C)CC2)C(C)C)ccc2c1B(O)OC2 [Compound 66] |  |
| 0.1 nM | 0.59 nM | Cc1c(C(=O)N[C@H](C(=O)OCc2cccc(F)c2)C(C)C)ccc2c1B(O)OC2 [Compound 7] |  |
| 24 nM | 0.16 nM | Cc1c(C(=O)N[C@H](C(=O)OCc2ccc(C(F)(F)F)cc2)C(C)C)ccc2c1B(O)OC2 [Compound 11] |  |
| 0.5 nM | 0.78 nM | Cc1c(C(=O)N[C@H](C(=O)OCc2cccnc2)C(C)C)ccc2c1B(O)OC2 [Compound 37] |  |
|  | 0.062 nM | Cc1c(C(=O)N[C@H](C(=O)OCc2cscn2)C(C)C)ccc2c1B(O)OC2 [Compound 43] |  |
| 0.79 nM | 0.43 nM | Cc1c(C(=O)N[C@H](C(=O)OCCc2ccc(F)cc2)C(C)C)ccc2c1B(O)OC2 [Compound 67] |  |
| 9190 nM | 2580 nM | CC(C)[C@H](NC(=O)c1ccc2c(c1)B(O)OC2(C)C)C(=O)OCc1ccccc1 [Compound 3] |  |
| 69 nM | 5 nM | C[C@H](NC(=O)c1ccc2c(c1)B(O)OC2)C(=O)OCc1ccccc1 [Compound 1] | IC50 [5]: 4.9 nM |
| 0.52 nM | 0.7 nM | Cc1c(C(=O)N[C@H](C(=O)OC2CCCC2)C(C)C)ccc2c1B(O)OC2 [Compound 59] |  |
| 980 nM | 5000 nM | Cc1c(C(=O)N[C@H](C(=O)OCc2c[nH]cn2)C(C)C)ccc2c1B(O)OC2 [Compound 44] |  |
| 0.26 nM | 0.46 nM | Cc1c(C(=O)N[C@H](C(=O)OCC(C)C)C(C)C)ccc2c1B(O)OC2 [Compound 57] |  |
| 2.5 nM | 0.45 nM | Cc1c(C(=O)NC2(C(=O)OCc3ccc(F)cc3)CCC2)ccc2c1B(O)OC2 [Compound 32] |  |
| 14 nM | 5.2 nM | Cc1c(C(=O)N[C@H](C(=O)OC(C)C)C(C)C)ccc2c1B(O)OC2 [Compound 56] |  |
| 2.7 nM | 0.22 nM | Cc1c(C(=O)N[C@H](C(=O)OCc2cccc(C(F)(F)F)c2)C(C)C)ccc2c1B(O)OC2 [Compound 10] |  |
| 0.05 nM | 0.15 nM | Cc1c(C(=O)N[C@H](C(=O)OCc2ccc(C#N)cc2)C(C)C)ccc2c1B(O)OC2 [Compound 15] |  |
| 0.1 nM | 0.18 nM | Cc1c(C(=O)N[C@H](C(=O)OCc2cc(F)cc(F)c2)C(C)C)ccc2c1B(O)OC2 [Compound 9] |  |

| IC50 [1] | IC50 ([5]; Trypanosoma congolense, 72 h) | SMILES | other results |
| --- | --- | --- | --- |
| 0.04 nM | 0.23 nM | Cc1c(C(=O)N[C@H](C(=O)OCc2ccc(OC(F)(F)F)cc2)C(C)C)ccc2c1B(O)OC2 [Compound 13] |  |
| 1.2 nM | 9.4 nM | Cc1c(C(=O)N[C@H](C(=O)OCCN2CCCC2)C(C)C)ccc2c1B(O)OC2 [Compound 65] |  |
| 0.5 nM | 0.27 nM | Cc1c(C(=O)N[C@H](C(=O)OCc2ncc(F)cn2)C(C)C)ccc2c1B(O)OC2 [Compound 40] |  |
| 0.33 nM | 0.37 nM | Cc1c(C(=O)N[C@H](C(=O)OCc2ccc3ccccc3n2)C(C)C)ccc2c1B(O)OC2 [Compound 45] |  |
| 0.38 nM | 0.12 nM | Cc1c(C(=O)N[C@H](C(=O)OCc2ccc(F)cc2)C2CC2)ccc2c1B(O)OC2 [Compound 28] |  |
| 37 nM | 1.8 nM | Cc1c(C(=O)N[C@H](C(=O)OC2COC2)C(C)C)ccc2c1B(O)OC2 [Compound 68] |  |
| 0.19 nM | 0.2 nM | Cc1c(C(=O)N[C@H](C(=O)OCc2nccs2)C(C)C)ccc2c1B(O)OC2 [Compound 42] |  |
| 19 nM | 0.31 nM | Cc1c(C(=O)N[C@H](C(=O)OCc2cccc(OC(F)(F)F)c2)C(C)C)ccc2c1B(O)OC2 [Compound 12] |  |
| 0.31 nM | 0.68 nM | Cc1c(C(=O)N[C@H](C(=O)OCc2ccncc2)C(C)C)ccc2c1B(O)OC2 [Compound 38] |  |
| 0.14 nM | 0.26 nM | Cc1c(C(=O)N[C@H](C(=O)OCc2ccccn2)C(C)C)ccc2c1B(O)OC2 [Compound 36] |  |
| 0.78 nM | 2.3 nM | Cc1c(C(=O)N[C@H](C(=O)OCCN2CCOCC2)C(C)C)ccc2c1B(O)OC2 [Compound 64] |  |
| 0.71 nM | 3.9 nM | CC(C)[C@H](NC(=O)c1ccc2c(c1C1CC1)B(O)OC2)C(=O)OCc1ccc(F)cc1 [Compound 27] |  |
| 51 nM | 37 nM | CC(C)[C@H](NC(=O)c1ccc2c(c1C(F)(F)F)B(O)OC2)C(=O)OCc1ccc(F)cc1 [Compound 23] |  |
| 0.21 nM | 0.36 nM | Cc1c(C(=O)N[C@H](C(=O)OCC2CCCC2)C(C)C)ccc2c1B(O)OC2 [Compound 61] |  |
| 4.7 nM | 3 nM | CCCc1c(C(=O)N[C@H](C(=O)OCc2ccc(F)cc2)C(C)C)ccc2c1B(O)OC2 [Compound 25] |  |
| 0.78 nM | < 0.005 nM | Cc1c(C(=O)N[C@H](C(=O)OC2CCCCC2)C(C)C)ccc2c1B(O)OC2 [Compound 60] |  |

| SMILES | IC50 [1] | IC50 ([5]; Trypanosoma congolense, 72 h) | other results |
| --- | --- | --- | --- |
| Cc1c(C(=O)N[C@H](C(=O)OCc2cnc3ccccc3n2)C(C)C)ccc2c1B(O)OC2 [Compound 47] | 0.081 nM | 0.2 nM | microsomal CLint [2]: 10 µL/min/mg; microsomal CLint [3]: 4.8 µL/min/mg; Efficacy in mouse model T. c., n/m (mice survived / total mice in group) ([4]; 1 × 10 mg/kg): 0/4 (1 × 10) |
| Cc1c(C(=O)N[C@H](C(=O)OCc2ccc(S(=O)(=O)N3CCN(C)CC3)cc2)C(C)C)ccc2c1B(O)OC2 [Compound 54] | 0.37 nM | 1 nM | microsomal CLint [2]: 3.8 µL/min/mg; microsomal CLint [3]: 5.5 µL/min/mg; Efficacy in mouse model T. c., n/m (mice survived / total mice in group) ([4]; 1 × 10 mg/kg): 0/4 (1 × 10) |
| Cc1c(C(=O)N[C@H](C(=O)OCc2ccc(F)c(C(F)(F)F)c2)C(C)C)ccc2c1B(O)OC2 [Compound 17] | 0.04 nM | 0.21 nM | microsomal CLint [2]: 10 µL/min/mg; microsomal CLint [3]: 14 µL/min/mg; Efficacy in mouse model T. c., n/m (mice survived / total mice in group) ([4]; 1 × 10 mg/kg): 0/4 (1 × 10) |
| Cc1c(C(=O)N[C@H](C(=O)OCc2cccc(CN3CCOCC3)c2)C(C)C)ccc2c1B(O)OC2 [Compound 53] | 0.35 nM | 0.51 nM | microsomal CLint [2]: 6.8 µL/min/mg; microsomal CLint [3]: 5.4 µL/min/mg; Efficacy in mouse model T. c., n/m (mice survived / total mice in group) ([4]; 1 × 10 mg/kg): 0/4 (1 × 10) |
| Cc1c(C(=O)NC2(C(=O)OCc3ccc(F)cc3)CC2)ccc2c1B(O)OC2 [Compound 31] | 18 nM | 0.13 nM | IC50 (nM) T. v. [1]: decreased activity; microsomal CLint [2]: < 1 µL/min/mg; microsomal CLint [3]: < 1 µL/min/mg; Efficacy in mouse model T. c., n/m (mice survived / total mice in group) ([4]; 1 × 10 mg/kg): 0/4 (1 × 10) |
| Cc1c(C(=O)N[C@H](C(=O)OCc2ccc3ncccc3c2)C(C)C)ccc2c1B(O)OC2 [Compound 46] | 0.24 nM | 0.42 nM | microsomal CLint [2]: 7 µL/min/mg; microsomal CLint [3]: 7.4 µL/min/mg; Efficacy in mouse model T. c., n/m (mice survived / total mice in group) ([4]; 1 × 10 mg/kg): 1/4 (1 × 10) |
| Cc1c(C(=O)N[C@H](C(=O)OCc2nccc(C(F)(F)F)n2)C(C)C)ccc2c1B(O)OC2 [Compound 41] | 0.11 nM | 0.78 nM | microsomal CLint [2]: 1.8 µL/min/mg; microsomal CLint [3]: 1.3 µL/min/mg; Efficacy in mouse model T. c., n/m (mice survived / total mice in group) ([4]; 1 × 10 mg/kg): 0/4 (1 × 10) |
| CCc1c(C(=O)N[C@H](C(=O)OCc2ccc(F)cc2)C(C)C)ccc2c1B(O)OC2 [Compound 24] | 0.05 nM | 0.11 nM | microsomal CLint [2]: 23 µL/min/mg; microsomal CLint [3]: 21 µL/min/mg; Efficacy in mouse model T. c., n/m (mice survived / total mice in group) ([4]; 2 × 10 mg/kg): 1/4 (2 × 10) |
